Tested on: 388556-164-R-J1-PDC complex spheroid viability
Assay: Anticancer human tumor 388556-164-R-J1-PDC patient-derived colon adenocarcinoma cell line growth inhibition [RAS]
Settings: for IC50: curve of first compound; for viability, T/C: stronger effect = lower value; active = viability on the fitted dose curve at most 10% of control; inactive = the rest
Outline: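 Multi-cell-type spheroids: tumor cells plus HUVEC endothelial cells and mesenchymal stem cells. RAS-pathway inhibitors were combined with targeted agents, each dosed in half-log steps down from clinical Cmax, or from 10 microM when Cmax was unknown.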

[1] = second compound 0.000949 µM, first compound 0.0316 µM
[2] = second compound 0.000949 µM, first compound 0.1 µM
[3] = second compound 0.000949 µM, first compound 0.316 µM
[4] = second compound 0.000949 µM, first compound 1 µM
[5] = second compound 0.000949 µM, first compound 3.16 µM
[6] = second compound 0.000949 µM, first compound 10 µM
[7] = second compound 0.003 µM, first compound 0.0316 µM
[8] = second compound 0.003 µM, first compound 0.1 µM
[9] = second compound 0.003 µM, first compound 0.316 µM
[10] = second compound 0.003 µM, first compound 1 µM
[11] = second compound 0.003 µM, first compound 3.16 µM
[12] = second compound 0.003 µM, first compound 10 µM
[13] = second compound 0.00949 µM, first compound 0.0316 µM
[14] = second compound 0.00949 µM, first compound 0.1 µM
[15] = second compound 0.00949 µM, first compound 0.316 µM
[16] = second compound 0.00949 µM, first compound 1 µM
[17] = second compound 0.00949 µM, first compound 3.16 µM
[18] = second compound 0.00949 µM, first compound 10 µM
[19] = second compound 0.03 µM, first compound 0.0316 µM
[20] = second compound 0.03 µM, first compound 0.1 µM
[21] = second compound 0.03 µM, first compound 0.316 µM
[22] = second compound 0.03 µM, first compound 1 µM
[23] = second compound 0.03 µM, first compound 3.16 µM
[24] = second compound 0.03 µM, first compound 10 µM
[25] = second compound 0.0949 µM, first compound 0.0316 µM
[26] = second compound 0.0949 µM, first compound 0.1 µM
[27] = second compound 0.0949 µM, first compound 0.316 µM
[28] = second compound 0.0949 µM, first compound 1 µM
[29] = second compound 0.0949 µM, first compound 3.16 µM
[30] = second compound 0.0949 µM, first compound 10 µM
[31] = second compound 0.3 µM, first compound 0.0316 µM
[32] = second compound 0.3 µM, first compound 0.1 µM
[33] = second compound 0.3 µM, first compound 0.316 µM
[34] = second compound 0.3 µM, first compound 1 µM
[35] = second compound 0.3 µM, first compound 3.16 µM
[36] = second compound 0.3 µM, first compound 10 µM
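Note: spheroids exposed to compound for 7 days before readout.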
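Throughout, for viability, T/C: 100% = DMSO vehicle control luminescence.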

Cc1nc(N2CCC3(CC2)COC(C)C3N)c(CO)nc1Sc1ccnc(N)c1Cl (stereo unspecified) + C#Cc1c(F)ccc2cc(O)cc(-c3ncc4c(N5CC6CCC(C5)N6)nc(OCC56CCCN5CC(F)C6)nc4c3F)c12
inactive: viability, T/C (second compound 0.0316 µM, first compound 0.0316 µM) 92% | viability, T/C (second compound 0.0316 µM, first compound 0.1 µM) 85.2% | viability, T/C (second compound 0.0316 µM, first compound 0.316 µM) 79.8% | viability, T/C (second compound 0.0316 µM, first compound 1 µM) 55.2% | viability, T/C (second compound 0.0316 µM, first compound 3.16 µM) 51% | viability, T/C (second compound 0.0316 µM, first compound 10 µM) 42.3% | viability, T/C (second compound 0.1 µM, first compound 0.0316 µM) 98.4% | viability, T/C (second compound 0.1 µM, first compound 0.1 µM) 89.7% | viability, T/C (second compound 0.1 µM, first compound 0.316 µM) 71.8% | viability, T/C (second compound 0.1 µM, first compound 1 µM) 62.5% | viability, T/C (second compound 0.1 µM, first compound 3.16 µM) 45% | viability, T/C (second compound 0.1 µM, first compound 10 µM) 36.9% | viability, T/C (second compound 0.316 µM, first compound 0.0316 µM) 89.2% | viability, T/C (second compound 0.316 µM, first compound 0.1 µM) 81.4% | viability, T/C (second compound 0.316 µM, first compound 0.316 µM) 47.3% | viability, T/C (second compound 0.316 µM, first compound 1 µM) 51.8% | viability, T/C (second compound 0.316 µM, first compound 3.16 µM) 45.2% | viability, T/C (second compound 0.316 µM, first compound 10 µM) 28.8% | viability, T/C (second compound 1 µM, first compound 0.0316 µM) 80% | viability, T/C (second compound 1 µM, first compound 0.1 µM) 70.5% | viability, T/C (second compound 1 µM, first compound 0.316 µM) 58.9% | viability, T/C (second compound 1 µM, first compound 1 µM) 49.1% | viability, T/C (second compound 1 µM, first compound 3.16 µM) 39.4% | viability, T/C (second compound 1 µM, first compound 10 µM) 26.2% | viability, T/C (second compound 3.16 µM, first compound 0.0316 µM) 66.1% | viability, T/C (second compound 3.16 µM, first compound 0.1 µM) 50.8% | viability, T/C (second compound 3.16 µM, first compound 0.316 µM) 54.3% | viability, T/C (second compound 3.16 µM, first compound 1 µM) 46.6% | viability, T/C (second compound 3.16 µM, first compound 3.16 µM) 33.6% | viability, T/C (second compound 3.16 µM, first compound 10 µM) 24% | viability, T/C (second compound 10 µM, first compound 0.0316 µM) 61.1% | viability, T/C (second compound 10 µM, first compound 0.1 µM) 45.5% | viability, T/C (second compound 10 µM, first compound 0.316 µM) 44% | viability, T/C (second compound 10 µM, first compound 1 µM) 32.1% | viability, T/C (second compound 10 µM, first compound 3.16 µM) 22% | viability, T/C (second compound 10 µM, first compound 10 µM) 21.3%
0.827 µM: IC50 (second compound 0.316 µM)
0.4 µM: IC50 (second compound 3.16 µM)
2.29 µM: IC50 (second compound 0.0316 µM)
0.921 µM: IC50 (second compound 1 µM)
0.0959 µM: IC50 (second compound 10 µM)
2.35 µM: IC50 (second compound 0.1 µM)

CC(C)NCC(C(=O)N1CCN(c2ncnc3c2C(C)CC3O)CC1)c1ccc(Cl)cc1 (stereo unspecified) + CCn1c(-c2cc(N3CCN(C)CC3)cnc2C(C)OC)c2c3cc(ccc31)-c1csc(n1)CC(NC(=O)C1CC1C)C(=O)N1CCCC(N1)C(=O)OCC(C)(C)C2
inactive: viability, T/C [1] 105% | viability, T/C [2] 107% | viability, T/C [3] 96.4% | viability, T/C [4] 91.2% | viability, T/C [5] 95% | viability, T/C [6] 103% | viability, T/C [7] 102% | viability, T/C [8] 96.5% | viability, T/C [9] 95.4% | viability, T/C [10] 82% | viability, T/C [11] 84.9% | viability, T/C [12] 88% | viability, T/C [13] 86% | viability, T/C [14] 80% | viability, T/C [15] 69.4% | viability, T/C [16] 73.9% | viability, T/C [17] 84.8% | viability, T/C [18] 58.8% | viability, T/C [19] 58.2% | viability, T/C [20] 65.7% | viability, T/C [21] 57.1% | viability, T/C [22] 56% | viability, T/C [23] 51.9% | viability, T/C [24] 47.8% | viability, T/C [25] 45.7% | viability, T/C [26] 46.5% | viability, T/C [27] 38.9% | viability, T/C [28] 36.3% | viability, T/C [29] 40.9% | viability, T/C [30] 33% | viability, T/C [31] 31.9% | viability, T/C [32] 31.5% | viability, T/C [33] 30.5% | viability, T/C [34] 28.1% | viability, T/C [35] 24.4% | viability, T/C [36] 22.8%
< 0.0316 µM: IC50 (second compound 0.0949 µM) | IC50 (second compound 0.3 µM)
5.63 µM: IC50 (second compound 0.03 µM)
> 10 µM: IC50 (second compound 0.000949 µM) | IC50 (second compound 0.003 µM) | IC50 (second compound 0.00949 µM)

CCC(CC)c1cc(NC2CCC(N)C2)n2nccc2n1 (stereo unspecified) + CCn1c(-c2cc(N3CCN(C)CC3)cnc2C(C)OC)c2c3cc(ccc31)-c1csc(n1)CC(NC(=O)C1CC1C)C(=O)N1CCCC(N1)C(=O)OCC(C)(C)C2
inactive: viability, T/C [1] 84.5% | viability, T/C [2] 104% | viability, T/C [3] 93.3% | viability, T/C [4] 90.6% | viability, T/C [5] 14.7% | viability, T/C [6] 10.2% | viability, T/C [7] 89.6% | viability, T/C [8] 85.2% | viability, T/C [9] 79.3% | viability, T/C [10] 81.1% | viability, T/C [11] 20.5% | viability, T/C [13] 82.7% | viability, T/C [14] 77.2% | viability, T/C [15] 73.7% | viability, T/C [16] 65.1% | viability, T/C [17] 15.4% | viability, T/C [18] 11.8% | viability, T/C [19] 56.5% | viability, T/C [20] 66.5% | viability, T/C [21] 57.9% | viability, T/C [22] 51.7% | viability, T/C [23] 10% | viability, T/C [24] 11.5% | viability, T/C [25] 40.5% | viability, T/C [26] 47% | viability, T/C [27] 47% | viability, T/C [28] 38.4% | viability, T/C [29] 9.16% | viability, T/C [30] 11.8% | viability, T/C [31] 28.7% | viability, T/C [32] 32.5% | viability, T/C [33] 32.4% | viability, T/C [34] 27.8% | viability, T/C [35] 5.58%
active: viability, T/C [12] 9.94% | viability, T/C [36] 11%
1.42 µM: IC50 (second compound 0.00949 µM)
1.05 µM: IC50 (second compound 0.03 µM)
1.81 µM: IC50 (second compound 0.003 µM)
< 0.0316 µM: IC50 (second compound 0.0949 µM) | IC50 (second compound 0.3 µM)
1.85 µM: IC50 (second compound 0.000949 µM)

Reference: PubChem BioAssay AID2060907 (Molecular Pharmacology Branch, DTP, NCI, 2025)
